One assay deals with Tubulin (Homo sapiens) (UniProt P68371+Q9H4B7+P0DPH7+P68366+Q13509+Q71U36+P04350+Q3ZCM7+P07437+P68363+Q9BQE3+Q6PEY2+Q13885+Q9BVA1+Q9BUF5). In words: Binding affinity to tubulin (unknown origin) by fluorescence polarization displacement assay. Type of assay: protein-complex assay. For orientation: Fluorescence polarisation rises when a labelled molecule tumbles more slowly, as on binding a larger partner.

The subject of another assay is DEL. In words: Antiproliferative against human DEL cells incubated for 96 hrs by cellTiter-Glo assay. Type of assay: functional, cell-based. (In general: In ATP-based viability assays light output follows the ATP content of the culture.)
The subject of the next assay is L-540. In words: Antiproliferative against human L540cy cells incubated for 96 hrs by cellTiter-Glo assay. In kind it is functional, cell-based. The note with it: L-540, 96 h.
A short description of assay [1]: Antiproliferative against human DEL/BVR cells incubated for 96 hrs by cellTiter-Glo assay. In kind it is functional, cell-based.
In a further assay the test system is L-428. In words: Antiproliferative against human L428 cells incubated for 96 hrs by cellTiter-Glo assay. In kind it is functional, cell-based. The note with it: L-428, 96 h.

As usually defined, the EC50 is the concentration at which the effect is half-maximal.

Bounds are passed on as bounds.

In the case of `CCO[C@H](C[C@H](C(C)C)N(C)C(=O)[C@@H](NC(=O)[C@H]1CCCCN1C)C1CCCC1)c1nc(C(=O)N[C@@H](Cc2ccccc2)C[C@H](C)C(=O)O)cs1`, the relative binding affinity (RBA) at Tubulin (Homo sapiens) is 0.45. In addition, the EC50 in the assay on DEL came to 0.1 nM; in the assay with L-540, 0.2 nM; in assay [1], 1 nM.

As for `CC[C@H](C)[C@H](NC(=O)[C@H]1CCCCN1C)C(=O)N(C)[C@H](C[C@@H](OC(=O)CC(C)C)c1nc(C(=O)N[C@@H](Cc2ccccc2)C[C@H](C)C(=O)O)cs1)C(C)C`, the relative binding affinity (RBA) on Tubulin (Homo sapiens) was determined as 0.26. Besides, the concentration giving a half-maximal response (EC50) in the assay with L-540 came out at 0.06 nM; in the assay on L-428, 0.11 nM.

Compound `CCO[C@H](C[C@H](C(C)C)N(C)C(=O)[C@@H](NC(=O)C1CCC(F)(F)CN1C)[C@@H](C)CC)c1nc(C(=O)N[C@@H](Cc2ccccc2)C[C@H](C)C(=O)O)cs1` (mixture of isomers) yielded a relative binding affinity (RBA) on Tubulin (Homo sapiens) of 0.07. The half-maximal effective concentration (EC50) in the assay with DEL is 9 nM; in the assay with L-540, 15 nM; in assay [1], 66 nM.

For `CCC(=O)O[C@H](C[C@H](C(C)C)N(C)C(=O)[C@@H](NC(=O)[C@H]1CCCCN1C)[C@@H](C)CC)c1nc(C(=O)N[C@@H](Cc2ccccc2)C[C@H](C)C(=O)O)cs1`, the relative binding affinity (RBA) on Tubulin (Homo sapiens) is 0.97. Also, the EC50 in the assay with L-540 is 0.06 nM; with L-428 it was 0.04 nM.

As to `CCO[C@H](C[C@H](C(C)C)N(C)C(=O)[C@@H](NC(=O)[C@H]1CCCCN1C)C(CC)CC)c1nc(C(=O)N[C@@H](Cc2ccccc2)C[C@H](C)C(=O)O)cs1`, the relative binding affinity (RBA) at Tubulin (Homo sapiens) was determined as 0.2. Further, the EC50 with DEL is 0.4 nM; in the assay with L-540, 1 nM; in assay [1], 4 nM.

With `CCO[C@H](C[C@H](C(C)C)N(C)C(=O)[C@@H](NC(=O)C12CC(CCN1C)C2)[C@@H](C)CC)c1nc(C(=O)N[C@@H](Cc2ccccc2)C[C@H](C)C(=O)O)cs1`, the relative binding affinity (RBA) at Tubulin (Homo sapiens) turned out to be 0.23. The EC50 worked out at 0.2 nM in the assay on DEL, 1 nM in the assay on L-540 and 2 nM in assay [1].

`CCO[C@H](C[C@H](C(C)C)N(C)C(=O)[C@@H](NC(=O)[C@H]1CCCCN1C)[C@H](C)OC)c1nc(C(=O)N[C@@H](Cc2ccccc2)C[C@H](C)C(=O)O)cs1` had a relative binding affinity (RBA) at Tubulin (Homo sapiens) of 0.001. The values for the EC50 (with DEL; in the assay with L-540; in assay [1]) were 1 nM, 5 nM and 17 nM, respectively.

In the case of `CCO[C@H](C[C@H](C(C)C)N(C)C(=O)[C@@H](NC(=O)[C@H]1CCCCN1C)[C@@H](C)OC(C)(C)C)c1nc(C(=O)N[C@@H](Cc2ccccc2)C[C@H](C)C(=O)O)cs1`, the relative binding affinity (RBA) on Tubulin (Homo sapiens) amounted to 0.83. Also, the EC50 in the assay with DEL is 0.1 nM; with L-540, 0.1 nM; in assay [1] it was 0.4 nM.

At Tubulin (Homo sapiens), `CCO[C@H](C[C@H](C(C)C)N(C)C(=O)[C@@H](NC(=O)[C@H]1CCCCN1C)[C@@H](C)OC)c1nc(C(=O)N[C@@H](Cc2ccccc2)C[C@H](C)C(=O)O)cs1` had a relative binding affinity (RBA) of 0.03. In addition, the concentration giving a half-maximal response (EC50) with DEL stood at 1 nM; with L-540 it was 6 nM; in assay [1], 66 nM.

With `CC[C@H](C)[C@H](NC(=O)[C@H]1CCCCN1C)C(=O)N(C)[C@H](C[C@@H](OCc1ccccc1)c1nc(C(=O)N[C@@H](Cc2ccccc2)C[C@H](C)C(=O)O)cs1)C(C)C`, the relative binding affinity (RBA) on Tubulin (Homo sapiens) is 0.07. The EC50 came out at 0.4 nM in the assay with L-540 and 0.57 nM in the assay with L-428.

In the case of `CC[C@H](C)[C@H](NC(=O)[C@H]1CCCCN1C)C(=O)N(C)[C@H](C[C@@H](OC(C)=O)c1nc(C(=O)N[C@@H](Cc2ccccc2)C[C@H](C)C(=O)O)cs1)C(C)C`, the EC50 in the assay on L-540 was 0.08 nM; in the assay with L-428 it was 0.04 nM.

The compound `C#CCO[C@H](C[C@H](C(C)C)N(C)C(=O)[C@@H](NC(=O)[C@H]1CCCCN1C)[C@@H](C)CC)c1nc(C(=O)N[C@@H](Cc2ccccc2)C[C@H](C)C(=O)O)cs1` registered a relative binding affinity (RBA) at Tubulin (Homo sapiens) of 0.59. The EC50 in the assay on L-540 turned out to be 0.17 nM; in the assay on L-428 it was 0.41 nM.

`CCO[C@H](C[C@H](C(C)C)N(C)C(=O)[C@@H](NC(=O)[C@H]1[C@@H]2CC[C@@H](C2)N1C)[C@@H](C)CC)c1nc(C(=O)N[C@@H](Cc2ccccc2)C[C@H](C)C(=O)O)cs1` yielded a relative binding affinity (RBA) on Tubulin (Homo sapiens) of 0.08. The EC50 in the assay on DEL turned out to be 2 nM; with L-540, 8 nM; in assay [1] it was 15 nM.

As for `CCO[C@H](C[C@H](C(C)C)N(C)C(=O)[C@@H](NC(=O)C1CN(C)CCN1C)[C@@H](C)CC)c1nc(C(=O)N[C@@H](Cc2ccccc2)C[C@H](C)C(=O)O)cs1` (mixture of isomers), in the assay on L-540, the EC50 was over 1000 nM.

`CC[C@H](C)[C@H](NC(=O)[C@H]1CCCCN1C)C(=O)N(C)[C@H](C[C@@H](OC(=O)C(C)C)c1nc(C(=O)N[C@@H](Cc2ccccc2)C[C@H](C)C(=O)O)cs1)C(C)C`: the relative binding affinity (RBA) at Tubulin (Homo sapiens) was determined as 0.36. Also, the EC50 worked out at 0.1 nM in the assay with L-540 and 0.12 nM in the assay on L-428.

As to `C=C(C)CO[C@H](C[C@H](C(C)C)N(C)C(=O)[C@@H](NC(=O)[C@H]1CCCCN1C)[C@@H](C)CC)c1nc(C(=O)N[C@@H](Cc2ccccc2)C[C@H](C)C(=O)O)cs1`, the relative binding affinity (RBA) at Tubulin (Homo sapiens) amounted to 0.43. The EC50 was determined as 0.06 nM with L-540 and 0.12 nM in the assay on L-428.

Consider `CCO[C@H](C[C@H](C(C)C)N(C)C(=O)[C@@H](NC(=O)[C@H]1CCCCN1C)[C@H](C)OC(C)(C)C)c1nc(C(=O)N[C@@H](Cc2ccccc2)C[C@H](C)C(=O)O)cs1`, for which, on Tubulin (Homo sapiens), the relative binding affinity (RBA) worked out at 0.06. Besides, the EC50 in the assay with DEL was determined as 17 nM; with L-540, 81 nM; in assay [1], 123 nM.

In the case of `CCCC(=O)O[C@H](C[C@H](C(C)C)N(C)C(=O)[C@@H](NC(=O)[C@H]1CCCCN1C)[C@@H](C)CC)c1nc(C(=O)N[C@@H](Cc2ccccc2)C[C@H](C)C(=O)O)cs1`, the relative binding affinity (RBA) at Tubulin (Homo sapiens) was 0.52. For the same compound, the EC50 with L-540 turned out to be 0.04 nM; with L-428 it was 0.05 nM.

Compound `CC[C@H](C)[C@H](NC(=O)[C@H]1CCCCN1C)C(=O)N(C)[C@H](C[C@@H](OC)c1nc(C(=O)N[C@@H](Cc2ccccc2)C[C@H](C)C(=O)O)cs1)C(C)C` returned a relative binding affinity (RBA) at Tubulin (Homo sapiens) of 0.42. For the same compound, the EC50 in the assay on L-540 turned out to be 0.12 nM; in the assay on L-428, 0.48 nM.

On to `CCCO[C@H](C[C@H](C(C)C)N(C)C(=O)[C@@H](NC(=O)[C@H]1CCCCN1C)[C@@H](C)CC)c1nc(C(=O)N[C@@H](Cc2ccccc2)C[C@H](C)C(=O)O)cs1`, for which, on Tubulin (Homo sapiens), the relative binding affinity (RBA) was 0.68. The EC50 turned out to be 0.13 nM with L-540 and 0.39 nM in the assay on L-428.

Take `CCO[C@H](C[C@H](C(C)C)N(C)C(=O)[C@@H](NC(=O)[C@@]1(C)CCCN1C)[C@@H](C)CC)c1nc(C(=O)N[C@@H](Cc2ccccc2)C[C@H](C)C(=O)O)cs1`: on Tubulin (Homo sapiens), the relative binding affinity (RBA) is 0.38. Moreover, the EC50 in the assay with DEL is 0.3 nM; in the assay with L-540, 1 nM; in assay [1] it was 2 nM.

`CCO[C@H](C[C@H](C(C)C)N(C)C(=O)[C@@H](NC(=O)[C@H]1CCCCN1C)[C@@H](C)CC)c1nc(C(=O)N[C@@H](Cc2ccccc2)C[C@H](C)C(=O)O)cs1`: the relative binding affinity (RBA) on Tubulin (Homo sapiens) was 0.27. Moreover, the EC50 came out at 0.04 nM in the assay with DEL, 0.4 nM in the assay on L-540, 1 nM in assay [1] and 0.13 nM in the assay on L-428.

On Tubulin (Homo sapiens), `C=CCO[C@H](C[C@H](C(C)C)N(C)C(=O)[C@@H](NC(=O)[C@H]1CCCCN1C)[C@@H](C)CC)c1nc(C(=O)N[C@@H](Cc2ccccc2)C[C@H](C)C(=O)O)cs1` had a relative binding affinity (RBA) of 0.88. Moreover, the EC50 in the assay on L-540 is 0.12 nM; in the assay on L-428, 0.15 nM.

As to `CCO[C@H](C[C@H](C(C)C)N(C)C(=O)CNC(=O)[C@H]1CCCCN1C)c1nc(C(=O)N[C@@H](Cc2ccccc2)C[C@H](C)C(=O)O)cs1`, the EC50 was determined as 3300 nM with DEL, 4600 nM in the assay on L-540 and 9600 nM in assay [1].

At Tubulin (Homo sapiens), `CC[C@H](C)[C@H](NC(=O)[C@H]1CCCCN1C)C(=O)N(C)[C@H](C[C@@H](OCC(C)=O)c1nc(C(=O)N[C@@H](Cc2ccccc2)C[C@H](C)C(=O)O)cs1)C(C)C` returned a relative binding affinity (RBA) of 0.27. Besides, the EC50 in the assay on L-540 amounted to 0.6 nM; in the assay with L-428, 1 nM.

On to `CCO[C@H](C[C@H](C(C)C)N(C)C(=O)[C@H](C)NC(=O)[C@H]1CCCCN1C)c1nc(C(=O)N[C@@H](Cc2ccccc2)C[C@H](C)C(=O)O)cs1`, for which the relative binding affinity (RBA) on Tubulin (Homo sapiens) is 0.03. For the same compound, the EC50 is 21 nM in the assay on DEL, 110 nM with L-540 and 420 nM in assay [1].

On Tubulin (Homo sapiens), `CCO[C@H](C[C@H](C(C)C)N(C)C(=O)[C@@H](NC(=O)[C@H]1CCCCN1C)C1CCCCC1)c1nc(C(=O)N[C@@H](Cc2ccccc2)C[C@H](C)C(=O)O)cs1` had a relative binding affinity (RBA) of 0.4. The EC50 was found to be 0.2 nM in the assay with DEL, 1 nM in the assay on L-540 and 6 nM in assay [1].

In turn, `CCO[C@H](C[C@H](C(C)C)N(C)C(=O)[C@@H](NC(=O)[C@H]1CCCCN1C)[C@H](C)CC)c1nc(C(=O)N[C@@H](Cc2ccccc2)C[C@H](C)C(=O)O)cs1` had a relative binding affinity (RBA) at Tubulin (Homo sapiens) of 0.007. Further, the values for the EC50 (in the assay with DEL; in the assay on L-540; in assay [1]) were 3 nM, 13 nM and 61 nM, respectively.

On Tubulin (Homo sapiens), `CCO[C@H](C[C@H](C(C)C)N(C)C(=O)[C@@H](NC(=O)[C@H]1CCCCN1C)C1CCC1)c1nc(C(=O)N[C@@H](Cc2ccccc2)C[C@H](C)C(=O)O)cs1` showed a relative binding affinity (RBA) of 0.03. Further, the values for the EC50 (with DEL; in the assay with L-540; in assay [1]) were 13 nM, 24 nM and 89 nM, respectively.
